No end group written: not given here.
test system: TLR6 TMD (functional ToxR chimera); assay: Dominant-negative (heterotypic) ToxR assay, TLR6 as dominant phenotype; type: cell-based, E. coli; conditions: Miller units normalized to poly-Leu* = 1 and corrected for expression, lower = stronger interaction, N in table
Source text: Next, we investigated heterotypic interactions of the TLRs. We specifically studied TLR2, TLR1, and TLR6 because they are cell surface expressed receptors known to form functional heterodimers. To determine the ability of these three cell surface TLRs to have heterotypic interactions within its family, we studied the ability of the TLR1, TLR2, and TLR6 TMDs to interact with the TLR receptors also expressed at the cell surface; namely, TLR1, TLR2, TLR4, TLR5, TLR6, and TLR10. We monitored these interactions using a dominant-negative ToxR assay (Fig. S1B) which works by having a second TMD expressed with a non-functional ToxR* intracellular domain. This ToxR* domain is incapable of binding the ctx promoter making any interactions with this second expressed TMD unable to produce the reporter enzyme. As such, any interaction between the functional ToxR and non-functional ToxR* TMDs will result in a reduction in signal output.
Figure 3 Cell- Surface Toll-like Recptor Heterotypic Interactions. (A) A dominant-negative ToxR assay was used to study heterotypic interactions of the cell-surface TLRs. Two TLR TMDs were encoded in the FHK12 E.coli reporter strain, one with a functional ToxR domain (dominant phenotype) and one with a nonfunctional ToxR* domain (negative phenotype). Interaction between the two different TMDs leads to a reduction in signal from that seen for homotypic interactions. The TMDs for GpA, TLR1, TLR2, and TLR6 were used with the functional ToxR domain while TMDs for poly-Leucine, TMD5, integrin αIIb, TLR1, TLR2, TLR4, TLR5, TLR6, and TLR10 were used with the nonfunctional ToxR* domain. Interactions were most prominent for the TLRs known to have heterotypic interactions – TLR2-TLR1 and TLR2-TLR6. […] We also saw interaction with the same TMD further validating the homotypic interactions. […] Each dominant phenotype was done in 3 technical replicates with each negative phenotype and >6 measurements made for each replicate. Error bars depict the standard error of the mean (n- Tables S3, S5, S7, S9). Western blots staining for MBP were performed to monitor expression levels of the constructs with the upper band being functional ToxR chimeras and the lower band being nonfunctional ToxR* chimeras – (B) GpA, (C) TLR1, (D) TLR2, and (E) TLR6. Significant differences for the same dominant phenotype were determined by use of the Tukey-Kramer test.
For heterotypic interactions one plasmid containing a functional ToxR domain (200 ng) and a second plasmid containing a non-functional ToxR* domain (200 ng) were co-transformed into chemically competent FHK12 E. coli (400 µL) by incubating on ice for 30 min, heat shock at 42°C for 90 s, incubation on ice for 2 min, and addition of SOC media (1600 µL) followed by incubation with shaking for 1 h at 37°C. This transformation mixture (50 µL) was then used to spread LB-agar plates containing cholaramphenicol (30 µg/mL), kanamycin (33 µg/mL), and ampicillin (100 µg/mL) and grown overnight at 37°C. Single colonies were selected from the plates and grown in 5 mL LB media containing cholaramphenicol (30 µg/mL), kanamycin (33 µg/mL), ampicillin (100 µg/mL), and arabinose (0.0025%) overnight (16–20 h) with shaking at 37°C. Analysis of activity was monitored as described in homotypic ToxR assays. Western blotting was done in the same manner as the homotypic ToxR assay with one band appearing for the functional ToxR construct and a second band for the nonfunctional ToxR* construct. Data were normalized to poly-Leu* Miller Units and corrected for varying protein expression levels using ImageJ (NIH) as previously reported.

Row | Substance | Mean TLR6-TMD* heterotypic interaction (ToxR signal)
1 | TLR2*: TLR2 TMD chimera with nonfunctional ToxR* domain (negative phenotype) (GNRASALVSGMCCALFLLILLTGVLCGSLIN; cysteine pairing not given here; also: fused to non-functional ToxR* (S87H) and maltose binding protein, ends not given here) | 0.2802
2 | TLR6*: TLR6 TMD chimera with nonfunctional ToxR* domain (negative phenotype) (GNRASITLLIVTIGATMLVLAVTVTSLCIYLGSLIN; also: fused to non-functional ToxR* (S87H) and maltose binding protein, ends not given here) | 0.2564
3 | TLR1*: TLR1 TMD chimera with nonfunctional ToxR* domain (negative phenotype) (GNRASITLLIVTIVATMLVLAVTVTSLCSYLGSLIN; also: fused to non-functional ToxR* (S87H) and maltose binding protein, ends not given here) | 0.3316

From PMC3498381, “Isolated Toll-like Receptor Transmembrane Domains Are Capable of Oligomerization” (PLoS ONE, 2012)
